Test results reported in patent US20230203059A1, “MACROCYCLIC JAK INHIBITOR AND USES THEREOF” (Biopolar Hongye (Guangdong) Pharmaceutical Co. Ltd., priority 2020, published 2023).

Tests used:
Format in all cases: biochemical
TYK2 = TYK2 (Homo sapiens, UniProt P29597); experiment: JAK kinase activity, homogeneous time-resolved fluorescence (TYK2 reaction system); settings: ATP 2 μM, TYK2 protein 0.2 ng/μL; read-out: TYK 2 activity
How it was run: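 Activity read as the 665 nm/615 nm ratio after adding EDTA-containing detection mix with anti-phospho-substrate antibody and XL-615. Beforehand, 0.2 ng/μL TYK2, 2 μM ATP, substrate and compound reacted 1 h in pH 7.0 Hepes buffer with MgCl2 and DTT. IC50 fitted with Hill-slope equation.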

JAK2 = JAK2 (Homo sapiens, UniProt O60674); experiment: JAK kinase activity, homogeneous time-resolved fluorescence (JAK2 reaction system); settings: ATP 2 μM, JAK2 protein 0.01 ng/μL
Chain of JAK2 (O60674 whole entry): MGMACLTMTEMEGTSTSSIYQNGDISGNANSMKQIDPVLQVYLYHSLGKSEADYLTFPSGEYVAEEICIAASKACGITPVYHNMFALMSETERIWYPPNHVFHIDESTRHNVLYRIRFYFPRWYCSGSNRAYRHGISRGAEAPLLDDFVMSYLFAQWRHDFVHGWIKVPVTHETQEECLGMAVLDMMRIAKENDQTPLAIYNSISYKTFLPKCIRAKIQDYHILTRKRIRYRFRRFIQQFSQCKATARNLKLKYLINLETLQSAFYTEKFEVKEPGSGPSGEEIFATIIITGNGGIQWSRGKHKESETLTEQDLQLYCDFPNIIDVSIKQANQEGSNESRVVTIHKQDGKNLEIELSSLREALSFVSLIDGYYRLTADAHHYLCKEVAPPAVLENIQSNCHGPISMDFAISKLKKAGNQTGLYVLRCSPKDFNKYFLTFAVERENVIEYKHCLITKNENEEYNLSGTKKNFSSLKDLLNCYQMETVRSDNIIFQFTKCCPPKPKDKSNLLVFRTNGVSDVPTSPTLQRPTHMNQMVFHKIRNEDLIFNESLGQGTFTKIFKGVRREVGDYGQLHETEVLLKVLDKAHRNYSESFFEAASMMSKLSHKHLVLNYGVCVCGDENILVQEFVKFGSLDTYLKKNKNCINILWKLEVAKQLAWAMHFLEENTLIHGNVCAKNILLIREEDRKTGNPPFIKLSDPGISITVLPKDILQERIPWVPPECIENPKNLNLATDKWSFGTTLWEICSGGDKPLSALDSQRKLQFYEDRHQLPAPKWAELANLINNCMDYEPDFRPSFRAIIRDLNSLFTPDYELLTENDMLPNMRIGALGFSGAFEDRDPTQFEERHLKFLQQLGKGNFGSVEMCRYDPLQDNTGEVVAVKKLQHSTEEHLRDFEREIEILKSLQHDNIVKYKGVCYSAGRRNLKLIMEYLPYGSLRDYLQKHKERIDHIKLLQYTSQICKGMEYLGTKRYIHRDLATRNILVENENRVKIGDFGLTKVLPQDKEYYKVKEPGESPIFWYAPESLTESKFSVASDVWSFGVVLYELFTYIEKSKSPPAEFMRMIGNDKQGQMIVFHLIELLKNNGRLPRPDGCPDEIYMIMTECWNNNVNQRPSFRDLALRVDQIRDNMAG
How it was run: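 IC50 derived by Hill-equation fit of the 665/615 nm time-resolved fluorescence ratio after EDTA-containing detection mix with anti-phosphosubstrate antibody. Preceding 1 h reaction contained 2 μM ATP, 0.01 ng/μL JAK2, substrate, 50 mM Hepes pH 7.0, 5 mM MgCl2, 1 mM DTT.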

JAK1 = JAK1 (Homo sapiens, UniProt P23458); experiment: JAK kinase activity, homogeneous time-resolved fluorescence (JAK1 reaction system); settings: ATP 2 μM, JAK1 protein 0.2 ng/μL; read-out: JAK 1 activity
Chain of JAK1 (P23458 whole entry): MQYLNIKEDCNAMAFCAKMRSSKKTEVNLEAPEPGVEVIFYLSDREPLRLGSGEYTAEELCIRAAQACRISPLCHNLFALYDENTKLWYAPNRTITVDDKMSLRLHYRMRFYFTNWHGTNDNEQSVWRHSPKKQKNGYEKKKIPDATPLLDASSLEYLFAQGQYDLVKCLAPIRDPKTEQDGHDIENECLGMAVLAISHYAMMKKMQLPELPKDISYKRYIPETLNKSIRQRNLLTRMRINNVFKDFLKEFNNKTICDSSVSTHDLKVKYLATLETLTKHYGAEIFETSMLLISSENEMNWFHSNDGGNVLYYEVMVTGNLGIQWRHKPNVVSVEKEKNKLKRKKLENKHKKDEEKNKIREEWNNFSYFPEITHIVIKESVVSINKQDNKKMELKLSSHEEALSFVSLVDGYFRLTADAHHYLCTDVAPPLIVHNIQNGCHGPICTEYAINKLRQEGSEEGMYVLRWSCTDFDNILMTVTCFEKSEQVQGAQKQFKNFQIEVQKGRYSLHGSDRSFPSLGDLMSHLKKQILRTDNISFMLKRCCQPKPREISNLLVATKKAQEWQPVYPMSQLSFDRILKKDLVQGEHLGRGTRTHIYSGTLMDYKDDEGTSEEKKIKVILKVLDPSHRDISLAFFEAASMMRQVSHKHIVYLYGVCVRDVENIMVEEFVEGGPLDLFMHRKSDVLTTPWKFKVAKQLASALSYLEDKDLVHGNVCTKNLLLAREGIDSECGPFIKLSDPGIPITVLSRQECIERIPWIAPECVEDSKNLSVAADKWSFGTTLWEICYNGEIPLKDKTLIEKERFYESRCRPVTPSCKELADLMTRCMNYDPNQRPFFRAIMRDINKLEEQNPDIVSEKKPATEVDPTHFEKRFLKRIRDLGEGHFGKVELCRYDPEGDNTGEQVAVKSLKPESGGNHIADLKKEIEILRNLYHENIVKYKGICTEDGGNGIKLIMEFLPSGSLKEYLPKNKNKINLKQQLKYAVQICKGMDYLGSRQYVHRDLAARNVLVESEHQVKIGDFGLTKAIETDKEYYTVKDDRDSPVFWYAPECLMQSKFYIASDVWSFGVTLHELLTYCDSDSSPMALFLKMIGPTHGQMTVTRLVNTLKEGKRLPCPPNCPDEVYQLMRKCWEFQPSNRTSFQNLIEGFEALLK
How it was run: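 HTRF assay: JAK1 (0.2 ng/μL) with 2 μM ATP and substrate in 50 mM Hepes pH 7.0, 5 mM MgCl2, 1 mM DTT, 1 h. Phospho-substrate antibody/XL-615 detection with EDTA; 665/615 nm ratio, excitation 320 nm. IC50 from Hill-type fit against no-enzyme and no-compound controls.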

JAK3 = target: T1, JAK3 (Homo sapiens, UniProt P52333); experiment: JAK kinase activity, homogeneous time-resolved fluorescence (JAK3 reaction system); settings: ATP 2 μM, JAK3 protein 0.04 ng/μL; read-out: JAK 3 activity
T1 sequence (P52333 1-1124): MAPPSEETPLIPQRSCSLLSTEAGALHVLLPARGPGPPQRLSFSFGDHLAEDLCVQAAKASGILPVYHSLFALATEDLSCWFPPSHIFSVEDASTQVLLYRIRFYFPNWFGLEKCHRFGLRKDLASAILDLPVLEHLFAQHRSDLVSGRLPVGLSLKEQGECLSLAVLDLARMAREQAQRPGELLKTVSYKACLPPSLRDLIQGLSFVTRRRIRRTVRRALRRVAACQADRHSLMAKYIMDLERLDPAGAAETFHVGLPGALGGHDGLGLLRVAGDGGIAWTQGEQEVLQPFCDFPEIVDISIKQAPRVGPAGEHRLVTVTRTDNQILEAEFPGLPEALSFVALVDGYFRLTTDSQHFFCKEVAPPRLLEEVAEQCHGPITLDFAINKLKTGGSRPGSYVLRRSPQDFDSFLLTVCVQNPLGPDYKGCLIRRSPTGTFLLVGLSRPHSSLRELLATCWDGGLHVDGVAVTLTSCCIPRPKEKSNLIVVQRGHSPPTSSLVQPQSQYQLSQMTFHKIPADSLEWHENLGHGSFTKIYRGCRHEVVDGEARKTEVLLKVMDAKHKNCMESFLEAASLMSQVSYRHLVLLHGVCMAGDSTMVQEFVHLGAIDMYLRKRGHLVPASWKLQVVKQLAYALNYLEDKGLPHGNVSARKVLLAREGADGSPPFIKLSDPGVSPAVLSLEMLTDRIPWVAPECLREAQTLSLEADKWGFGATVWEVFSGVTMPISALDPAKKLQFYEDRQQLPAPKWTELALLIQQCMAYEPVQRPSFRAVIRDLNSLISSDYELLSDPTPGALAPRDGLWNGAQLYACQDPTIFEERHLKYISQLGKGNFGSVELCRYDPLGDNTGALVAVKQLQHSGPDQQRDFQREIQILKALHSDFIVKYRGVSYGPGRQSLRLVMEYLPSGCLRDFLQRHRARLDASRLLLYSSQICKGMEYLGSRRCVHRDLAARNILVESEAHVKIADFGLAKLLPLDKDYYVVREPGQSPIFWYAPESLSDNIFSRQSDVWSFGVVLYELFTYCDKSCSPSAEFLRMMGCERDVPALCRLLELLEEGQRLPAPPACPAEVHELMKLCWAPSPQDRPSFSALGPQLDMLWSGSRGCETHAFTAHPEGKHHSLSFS

Chain of TYK2 (P29597 whole entry): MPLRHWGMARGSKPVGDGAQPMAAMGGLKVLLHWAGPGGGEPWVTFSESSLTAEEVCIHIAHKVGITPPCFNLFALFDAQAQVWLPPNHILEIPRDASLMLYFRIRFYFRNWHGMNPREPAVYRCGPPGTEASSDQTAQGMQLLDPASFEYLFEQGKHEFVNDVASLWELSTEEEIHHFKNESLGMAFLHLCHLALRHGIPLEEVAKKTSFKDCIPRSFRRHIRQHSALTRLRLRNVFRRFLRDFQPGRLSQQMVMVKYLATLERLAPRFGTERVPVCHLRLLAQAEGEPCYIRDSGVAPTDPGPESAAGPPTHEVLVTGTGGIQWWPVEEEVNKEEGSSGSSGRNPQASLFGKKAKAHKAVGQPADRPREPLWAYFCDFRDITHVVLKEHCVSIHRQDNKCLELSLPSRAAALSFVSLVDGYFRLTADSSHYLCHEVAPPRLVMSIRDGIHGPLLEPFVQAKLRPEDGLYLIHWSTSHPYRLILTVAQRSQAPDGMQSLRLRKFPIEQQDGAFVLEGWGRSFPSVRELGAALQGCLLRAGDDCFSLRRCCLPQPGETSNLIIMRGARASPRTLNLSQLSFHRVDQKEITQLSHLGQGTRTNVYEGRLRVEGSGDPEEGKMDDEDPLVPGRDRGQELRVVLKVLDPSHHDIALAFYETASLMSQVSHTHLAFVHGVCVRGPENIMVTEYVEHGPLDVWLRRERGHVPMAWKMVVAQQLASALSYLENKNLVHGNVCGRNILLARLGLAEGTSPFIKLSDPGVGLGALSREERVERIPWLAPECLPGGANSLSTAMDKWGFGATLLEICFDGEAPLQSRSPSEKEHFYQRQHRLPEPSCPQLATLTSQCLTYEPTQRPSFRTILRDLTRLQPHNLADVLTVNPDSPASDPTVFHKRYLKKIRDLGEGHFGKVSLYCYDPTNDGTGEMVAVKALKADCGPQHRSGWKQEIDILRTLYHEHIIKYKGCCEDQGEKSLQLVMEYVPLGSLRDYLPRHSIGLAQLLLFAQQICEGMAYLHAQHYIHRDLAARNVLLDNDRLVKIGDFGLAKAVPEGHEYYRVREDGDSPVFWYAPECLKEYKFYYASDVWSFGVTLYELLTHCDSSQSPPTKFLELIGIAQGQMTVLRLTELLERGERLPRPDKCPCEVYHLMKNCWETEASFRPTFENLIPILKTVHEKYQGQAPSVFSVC

Row | IC50 (TYK2) [nM] | IC50 (JAK2) [nM] | IC50 (JAK1) [nM] | IC50 (JAK3) [nM] | SMILES
1 | > 10000 | 1000 to 10000 | 1000 to 10000 | 1000 to 10000 | O=C1NCCCCOCc2cc(ccc2Br)Nc2nccc(n2)-c2ccc1cc2[N+](=O)[O-] [Example 89, 4^4-bromo-1^2-nitro-6-oxa-3,11-diaza-2(4,2)-pyrimidina-1(1,4),4(1,3)-di-benzenacyclododecaphan-12-one]
2 | > 10000 | 101 to 1000 | 101 to 1000 | 11 to 100 | Nc1cc2ccc1-c1ccnc(n1)Nc1ccc(Br)c(c1)COCCCCNC2=O [Example 90, 1^2-amino-4^4-bromo-6-oxa-3,11-diaza-2(4,2)-pyrimidina-1(1,4),4(1,3)-di-benzenacyclododecaphan-12-one]
3 | > 10000 | > 10000 | > 10000 | 101 to 1000 | Nc1cc2ccc1-c1ccnc(n1)Nc1ccc(F)c(c1)COc1ccc(cc1)NC2=O [Example 91, 1^2-amino-4^4-fluoro-6-oxa-3,8-diaza-2(4,2)-pyrimidina-1,7(1,4),4(1,3)-tri-benzenacyclononaphane-9-one]
4 | > 10000 | 1000 to 10000 | 1000 to 10000 | 101 to 1000 | O=C1NCCCCOCc2cc(cc(F)c2F)Nc2nccc(n2)-c2ccc1cc2[N+](=O)[O-] [Example 93, 4^4,4^5-difluoro-1^2-nitro-6-oxa-3,11-di-aza-2(4,2)-pyrimidina-1(1,4),4(1,3)-dibenzenacyclododecaphan-12-one]
5 | > 10000 | 1000 to 10000 | 1000 to 10000 | 11 to 100 | Nc1cc2ccc1-c1ccnc(n1)Nc1cc(F)c(F)c(c1)COCCCCNC2=O [Example 94, 1^2-amino-4^4,4^5-difluoro-6-oxa-3,11-diaza-2(4,2)-pyrimidina-1(1,4),4(1,3)-dibenzenacyclododecaphan-12-one]
6 | 1000 to 10000 | 11 to 100 | 1000 to 10000 | < 10 | CC1CCNC(=O)c2ccc(c(N)c2)-c2ccnc(n2)Nc2ccc(OC3CC3)c(c2)COC1 (centres unmarked) [Example 95, 1^2-amino-4^4-cyclopropoxy-8-methyl-6-oxa-3, 11-diaza-2 (4,2)-pyrimidina-1(1,4),4(1,3)-dibenzenacyclododecaphan-12-one]
7 | > 10000 | 1000 to 10000 | 1000 to 10000 | 11 to 100 | Nc1cc2ccc1-c1ccnc(n1)Nc1ccc(Oc3ccccc3)c(c1)COCCCCNC2=O [Example 96, 1^2-amino-4^4-phenoxy-6-oxa-3,11-diaza-2(4,2)-pyrimidin-1(1,4),4(1,3)-dibenzenacyclododecaphan-12-one]
8 | 1000 to 10000 | 1000 to 10000 | 1000 to 10000 | 11 to 100 | Nc1cc2ccc1-c1ccnc(n1)Nc1ccc(OCC3CCCCC3)c(c1)COCCCCNC2=O [Example 97, 1^2-amino-4^4-(cyclohexylmethoxy)-6-oxa-3,11-diaza-2(4,2)-pyrimidi-na-1(1,4),4(1,3)-dibenzenacyclodo-decaphan-12-one]
9 | 1000 to 10000 | 101 to 1000 | 101 to 1000 | 11 to 100 | Nc1cc2ccc1-c1ccnc(n1)Nc1ccc(OC3CC(F)(F)C3)c(c1)COCCCCNC2=O [Example 98, 1^2-amino-4^4-(3,3-difluorocyclobuto-xy)-6-oxa-3,11-diaza-2(4,2)-pyri-midina-1(1,4),4(1,3)-dibenzenacyclo-dodecaphan-12-one]
10 | > 10000 | 1000 to 10000 | > 10000 | 101 to 1000 | O=C1NCCCCOCc2cc(ccc2OCC2CCC2)Nc2nccc(n2)-c2ccc1cc2[N+](=O)[O-] [Example 99, 4^4-(cyclobutylmethoxy)-1^2-nitro-6-oxa-3,11-diaza-2(4,2)-pyrimidina-1(1,4),4(1,3)-dibenzenacyclodode-caphan-12-one]
11 | 1000 to 10000 | 101 to 1000 | 101 to 1000 | < 10 | Nc1cc2ccc1-c1ccnc(n1)Nc1ccc(OCC3CCC3)c(c1)COCCCCNC2=O [Example 100, 1^2-amino-4^4-(cyclobutylmethoxy)-6-oxa-3,11-diaza-2(4,2)-pyrimidina-1(1,4),4(1,3)-dibenzenacyclododeca-phan-12-one]
12 | > 10000 | 1000 to 10000 | > 10000 | 1000 to 10000 | O=C1NCCCCOCc2cc(ccc2Oc2cccc(F)c2)Nc2nccc(n2)-c2ccc1cc2[N+](=O)[O-] [Example 101, 4^4-(3-fluorophenoxy)-1^2-nitro-6-oxa-3,11-diaza-2(4,2)-pyrimidina-(1,4),4(1,3)-dibenzenacyclododeca-phan-12-one]
13 | > 10000 | 1000 to 10000 | 1000 to 10000 | 11 to 100 | Nc1cc2ccc1-c1ccnc(n1)Nc1ccc(Oc3cccc(F)c3)c(c1)COCCCCNC2=O [Example 102, 1^2-amino-4^4-(3-fluorophenoxy)-6-oxa-3,11-diaza-2(4,2)-pyrimidina-1(1,4),4(1,3)-dibenzenacyclodode-caphan-12-one]
14 | > 10000 | 1000 to 10000 | > 10000 | 101 to 1000 | CC1CCNC(=O)c2ccc(c([N+](=O)[O-])c2)-c2ccnc(n2)Nc2ccc(OC3CC3)c(c2)COC1 (centres unmarked) [Example 103]
15 | > 10000 | 1000 to 10000 | > 10000 | 101 to 1000 | O=C1NCCCCOCc2cc(ccc2OCC2CCCC2)Nc2nccc(n2)-c2ccc1cc2[N+](=O)[O-] [Example 104, 4^4-(cyclopentylmethoxy)-1^2-nitro-6-oxa-3,11-diaza-2(4,2)-pyrimidina-1(1,4),4(1,3)-dibenzenacyclodo-decaphan-12-one]
16 | > 10000 | 101 to 1000 | 1000 to 10000 | < 10 | Nc1cc2ccc1-c1ccnc(n1)Nc1ccc(OCC3CCCC3)c(c1)COCCCCNC2=O [Example 105, 1^2-amino-4^4-(cyclopentylmethoxy)-6-oxa-3,11-diaza-2(4,2)-pyrimidi-na-1(1,4),4(1,3)-dibenzenacyclodo-decaphan-12-one]
17 | > 10000 | 1000 to 10000 | > 10000 | 101 to 1000 | O=C1NCCCCOCc2cc(ccc2Oc2ccc(F)cc2)Nc2nccc(n2)-c2ccc1cc2[N+](=O)[O-] [Example 106, 4^4-(4-fluorophenoxy)-1^2-nitro-6-o-xa-3,11-diaza-2(4,2)-pyrimidina-1(1,4),4(1,3)-dibenzenacyclo-dodecaphan-12-one]

Row | SMILES | IC50 (TYK2) [nM] | IC50 (JAK2) [nM] | IC50 (JAK1) [nM] | IC50 (JAK3) [nM]
18 | O=C1NCCCCOCc2cc(ccc2OC2CCCC2)Nc2nccc(n2)-c2ccc1cc2[N+](=O)[O-] [Example 87, 4^4-cyclopentoxy-1^2-nitro-6-oxa-3,11-diaza-2(4,2)-pyrimidina-1(1,4),4(1,3)-dibenzenacyclododecaphan-12-one] | > 10000 | > 10000 | > 10000 | 101 to 1000
19 | Nc1cc2ccc1-c1ccnc(n1)Nc1ccc(OC3CCCC3)c(c1)COCCCCNC2=O [Example 88, 1^2-amino-4^4-cyclopentoxy-6-oxa-3,11-diaza-2(4,2)-pyrimidina-1(1,4),4(1,3)-dibenzenacyclododecaphan-12-one] | 1000 to 10000 | 11 to 100 | 101 to 1000 | < 10
20 | O=C1NCCCCOCc2cc(ccc2OC2CCCC2)Nc2nccc(n2)-c2ccc1cc2F [Example 92, 4^4-cyclopentoxy-1^2-fluoro-6-oxa-3,11-diaza-2(4,2)-pyrimidina-1(1,4),4(1,3)-dibenzenacyclododecaphan-12-one] | 1000 to 10000 | 101 to 1000 | 1000 to 10000 | 11 to 100
